Laboratory results reported in PubChem BioAssay (NCI).
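Results reflect a 48-hour exposure of cells in 96-well plates to compound at five concentrations. GI50 marks 50% less growth. TGI marks complete inhibition of growth.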

Legend:
Experiment in all cases: DTP human tumour cell line panel, 48 h
HT29 colon = system: HT29 colon
KM12 colon = system: KM12 colon
M14 melanoma = system: M14 melanoma
NCI-H460 lung = system: NCI-H460 lung
OVCAR-4 ovarian = system: OVCAR-4 ovarian
SF-268 CNS = system: SF-268 CNS
SF-539 CNS = system: SF-539 CNS
SK-MEL-28 melanoma = system: SK-MEL-28 melanoma
UACC-62 melanoma = system: UACC-62 melanoma
UO-31 renal = system: UO-31 renal

Row | SMILES | GI50 (HT29 colon) [µM] | TGI (HT29 colon) [µM] | GI50 (KM12 colon) [µM] | TGI (KM12 colon) [µM] | GI50 (M14 melanoma) [µM] | TGI (M14 melanoma) [µM] | GI50 (NCI-H460 lung) [µM] | TGI (NCI-H460 lung) [µM] | GI50 (OVCAR-4 ovarian) [µM] | TGI (OVCAR-4 ovarian) [µM] | GI50 (SF-268 CNS) [µM] | TGI (SF-268 CNS) [µM] | GI50 (SF-539 CNS) [µM] | TGI (SF-539 CNS) [µM] | GI50 (SK-MEL-28 melanoma) [µM] | TGI (SK-MEL-28 melanoma) [µM] | GI50 (UACC-62 melanoma) [µM] | TGI (UACC-62 melanoma) [µM] | GI50 (UO-31 renal) [µM] | TGI (UO-31 renal) [µM]
1 | Cc1cc(Cc2cc(C)c(O)c(C)c2)cc(C)c1O | 8.87 | 33.8 | 3.93 | 15.7 | 3 | 13.2 | 3.33 | 11.8 | 29 | > 100 | 7.85 | 86.2 | 3.25 | 14.2 | 11.4 | 66.5 | 5.41 | 62.6 | 7.65 | 96.6
2 | O=C(/C=C1\C(=O)N(Cc2ccc([N+](=O)[O-])cc2)c2ccccc21)c1ccc(OCCN2CCCCC2)cc1 | 1.4 | 2.88 | 1.81 | 3.54 | 1.59 | 3.11 | 1.87 | 3.68 | 1.47 | 2.83 | 1.58 | 3.32 | 1.53 | 2.89 | 1.53 | 2.89 | 1.44 | 2.79 | 1.4 | 2.7
3 | CCCCSN1C(=O)c2ccccc2C1=S |  | > 100 |  | > 100 |  | > 100 |  | > 100 |  | > 100 |  | > 100 |  | > 100 |  | > 100 |  | > 100 |  | > 100
4 | Cc1ccc(C2CC(c3ccc([N+](=O)[O-])cc3)=Nc3ccccc3S2)cc1 (stereo not given) |  | 95.5 |  | 75.2 |  | > 100 |  | > 100 |  | > 100 |  | > 100 |  | 71.9 |  | 94.3 |  | > 100 |  | > 100
5 | COC(=O)C1CC(=O)CCC1c1ccccc1 (stereo not given) |  | > 100 |  | > 100 |  | > 100 |  | > 100 |  | > 100 |  | > 100 |  | > 100 |  | > 100 |  | > 100 |  | > 100
6 | CN(CCC#N)c1ccc(/C=C(\C#N)c2cccc(C(F)(F)F)c2)cc1 | 2.58 | 11.3 | 2.97 | > 100 | 3.51 | > 100 | 3.76 | > 100 | 4.71 | > 100 | 6.66 | > 100 | 4.31 | > 100 | 6.4 | > 100 | 3.96 | > 100 | 2.27 | > 100
7 | N#CNC(N)=NCCO |  | > 100 |  | > 100 |  | > 100 |  | > 100 |  | > 100 |  | > 100 |  | > 100 |  | > 100 |  | > 100 |  | > 100
8 | Cc1c(C)c2c(c(C)c1NC(=O)/C=C\C(=O)O)CCC(C)(CCCC(C)CCCC(C)CCCC(C)C)O2 (stereo not given) | 2.61 | 8.24 | 1.67 | 3.17 | 1.37 | 2.75 | 1.45 | 2.96 | 2.52 | 5.16 | 1.67 | 3.08 | 1.68 | 3.11 | 1.79 | 3.28 | 1.8 | 3.22 | 1.27 | 2.55
9 | O=C(CCN1CCOCC1)Nc1ccc(F)cc1F |  | > 100 |  | > 100 |  | > 100 |  | > 100 |  | > 100 |  | > 100 |  | > 100 |  | > 100 |  | > 100 |  | > 100
10 | COc1cc([N+](=O)[O-])c(S(=O)(=O)O)cc1NS(=O)(=O)c1ccc(C)cc1 |  | > 100 |  | > 100 |  | > 100 |  | > 100 |  | > 100 |  | > 100 |  | > 100 |  | > 100 |  | > 100 |  | > 100
11 | N=CCCN(CCC=N)c1ccc(/C=C2\CN(NC(=O)c3ccc(Cl)cc3)C(c3ccccc3)=N2)cc1 |  | > 100 |  | > 100 |  | > 100 |  | > 100 |  | > 100 |  | > 100 |  | > 100 |  | > 100 |  | > 100 |  | > 100
12 | O=C(CC(=O)c1ccc([N+](=O)[O-])cc1)C(=O)Nc1nccs1 |  | > 100 |  | > 100 |  | > 100 |  | > 100 |  | > 100 |  | > 100 |  | > 100 |  | > 100 |  | > 100 |  | > 100
13 | O=C(C/C(=N\NC(=O)C[n+]1ccccc1)C(=O)Nc1nc2ccc([N+](=O)[O-])cc2s1)CC(c1ccccc1)c1c(O)c2ccccc2oc1=O (stereo not given) |  | > 100 |  | > 100 |  | > 100 |  | > 100 |  | > 100 |  | > 100 |  | > 100 |  | > 100 |  | > 100 |  | > 100
14 | O=C1c2ccccc2NC(c2cc(Cl)cc(Cl)c2O)N1CCc1ccccn1 (stereo not given) |  | > 100 |  | > 100 |  | > 100 |  | > 100 |  | 98.9 |  | > 100 |  | > 100 |  | > 100 |  | > 100 |  | > 100
